The values that follow come from PubChem BioAssay (NCI).

The structures appear in SMILES notation.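 Following 48 hours of exposure in 96-well plates, responses at five concentrations were used to interpolate endpoints linearly. GI50: concentration for 50% inhibition of growth. TGI is the concentration that stops growth completely.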

Test systems include 786-0 renal; CAKI-1 renal; EKVX NSCLC; HCT-15 colon; IGROV1 ovarian; KM12 colon; NCI-H460 lung; RXF 393 renal; SF-268 CNS; SF-539 CNS.
What all share (assay): NCI tumour cell line growth inhibition, 48 h

As to `CC(C)CCOc1ccc(-c2n[nH]c(C(F)(F)F)c2-c2cncc(C#N)c2)c(O)c1`, the GI50 was 2.96 µM with 786-0 renal; 3.17 µM in the assay on CAKI-1 renal; 2.28 µM with EKVX NSCLC; 2.4 µM in the assay on HCT-15 colon; 3.35 µM with IGROV1 ovarian; 3.33 µM with KM12 colon. Also, the GI50 in the assay with NCI-H460 lung was 2.5 µM; in the assay on RXF 393 renal, 1.96 µM; in the assay with SF-268 CNS it was 4.18 µM; in the assay on SF-539 CNS, 2.8 µM. Also, the TGI with 786-0 renal is 13.1 µM; in the assay on CAKI-1 renal, 13.6 µM; in the assay on EKVX NSCLC, 13.2 µM; with HCT-15 colon it was 13.4 µM; in the assay on IGROV1 ovarian, > 100 µM; in the assay with KM12 colon, > 100 µM. In addition, the TGI in the assay on NCI-H460 lung was 12.5 µM; in the assay on RXF 393 renal, 6.15 µM; with SF-268 CNS it was > 100 µM; in the assay on SF-539 CNS, 16.7 µM.
Turning to `C/C(=N\NC(=O)c1ccncc1)c1ccc2ccccc2c1O`, the TGI in the assay with 786-0 renal is 48.4 µM; in the assay with CAKI-1 renal, > 84.5 µM; in the assay on EKVX NSCLC, > 100 µM; with HCT-15 colon, > 100 µM; in the assay with IGROV1 ovarian, 99.3 µM; with KM12 colon it was 60.8 µM. Moreover, the TGI was 20.4 µM with NCI-H460 lung, > 79.6 µM in the assay on RXF 393 renal, 40.8 µM with SF-268 CNS and 23.2 µM in the assay with SF-539 CNS.
As to `NC(N)=NS(=O)(=O)c1ccc(NCc2c3ccccc3nc3ccccc23)cc1`, the TGI in the assay with 786-0 renal was 9.65 µM; in the assay with CAKI-1 renal it was 69.2 µM; with EKVX NSCLC, > 71.7 µM; in the assay on HCT-15 colon it was > 100 µM; in the assay on IGROV1 ovarian it was 65 µM; in the assay on KM12 colon it was 70.1 µM. Besides, the TGI was 19.2 µM in the assay with NCI-H460 lung, 42.1 µM in the assay on RXF 393 renal, 23.1 µM with SF-268 CNS and 4.72 µM in the assay with SF-539 CNS.
As to `CCCCCC(O)C1C(=O)OC(C)C(O)/C=C/C=C/C=C/C=C\C=C(\C)C(O)CC(O)CC(O)CC(O)CC(O)CC(O)CC1O` (stereo not given), the GI50 in the assay with 786-0 renal, in the assay on CAKI-1 renal, in the assay with EKVX NSCLC, with HCT-15 colon, with IGROV1 ovarian and with KM12 colon was > 100 µM in each case. In addition, the GI50 in the assay with NCI-H460 lung, in the assay with RXF 393 renal, in the assay with SF-268 CNS and with SF-539 CNS was > 100 µM throughout. For the same compound, the TGI in the assay on 786-0 renal, with CAKI-1 renal, in the assay with EKVX NSCLC, in the assay with HCT-15 colon, in the assay on IGROV1 ovarian and with KM12 colon was > 100 µM in each case. Besides, the TGI in the assay on NCI-H460 lung, in the assay with RXF 393 renal, in the assay with SF-268 CNS and in the assay with SF-539 CNS was > 100 µM in each case.
With `CC(=O)OC1CC(n2cc(F)c(=O)[nH]c2=O)OC1CO` (stereo not given), the TGI in the assay on 786-0 renal was > 62.5 µM; in the assay with CAKI-1 renal, > 100 µM; with EKVX NSCLC, > 100 µM; with HCT-15 colon, > 100 µM; in the assay with IGROV1 ovarian, > 100 µM; in the assay with KM12 colon it was > 100 µM. Further, the TGI in the assay with NCI-H460 lung is > 100 µM; with RXF 393 renal it was > 100 µM; in the assay with SF-268 CNS it was > 73.8 µM; in the assay with SF-539 CNS it was 5.02 µM.
For `COc1cc(NCCCCN=C(N)NC(N)=NC(C)C)c2ncccc2c1`, the GI50 is 31 µM in the assay on 786-0 renal; > 100 µM with CAKI-1 renal; 5.83 µM with EKVX NSCLC; > 100 µM in the assay on HCT-15 colon; 0.439 µM in the assay with IGROV1 ovarian; 1.48 µM in the assay on KM12 colon. For the same compound, the GI50 in the assay with NCI-H460 lung was 5.97 µM; in the assay with RXF 393 renal, > 47 µM; in the assay on SF-268 CNS it was 3.83 µM; in the assay with SF-539 CNS, 8.14 µM. Moreover, the TGI in the assay on 786-0 renal was > 100 µM; in the assay on CAKI-1 renal, > 100 µM; in the assay with EKVX NSCLC, > 62 µM; in the assay on HCT-15 colon, > 100 µM; with IGROV1 ovarian, 6.32 µM; with KM12 colon, 11.8 µM. Moreover, the TGI was 20 µM in the assay with NCI-H460 lung, > 100 µM in the assay on RXF 393 renal, 17.9 µM with SF-268 CNS and 22.2 µM with SF-539 CNS.
Regarding `N#CC(C(=O)/C(=N\Nc1nc(=S)[nH]n1N)C(C#N)c1ccc(Cl)cc1)c1ccc(Cl)cc1` (stereo not given), the TGI in the assay on 786-0 renal, with CAKI-1 renal, in the assay on EKVX NSCLC, in the assay with HCT-15 colon, with IGROV1 ovarian and in the assay with KM12 colon was > 100 µM throughout. Also, the TGI in the assay with NCI-H460 lung, in the assay with RXF 393 renal, with SF-268 CNS and in the assay on SF-539 CNS was > 100 µM each time.
On to `CC(C)C1OC(=O)C=C1Sc1ccccc1` (stereo not given), for which the TGI in the assay on 786-0 renal, in the assay with CAKI-1 renal, with EKVX NSCLC, in the assay with HCT-15 colon, in the assay on IGROV1 ovarian and with KM12 colon was > 100 µM in each case. For the same compound, the TGI in the assay with NCI-H460 lung, in the assay on RXF 393 renal, in the assay with SF-268 CNS and in the assay with SF-539 CNS was > 100 µM throughout.
For `CCn1c2c(n(CC)c1=S)-c1c(n(CC)c(=S)n1CC)SSSS2`, the TGI in the assay on 786-0 renal amounted to 28.6 µM; in the assay with CAKI-1 renal, 33.1 µM; with EKVX NSCLC, 21.4 µM; in the assay on HCT-15 colon, 11.8 µM; in the assay on IGROV1 ovarian it was 34.3 µM; with KM12 colon, 35.9 µM. Also, the TGI in the assay with NCI-H460 lung was > 77.9 µM; in the assay with RXF 393 renal, 7.55 µM; in the assay on SF-268 CNS, 44.4 µM; with SF-539 CNS it was 28.2 µM.
`O=C1C(Br)=CC2(C=C1Br)CCN=c1c2c(O)c2nc3ccccc3c3ccnc1c23`: the GI50 with 786-0 renal is 0.987 µM; in the assay on CAKI-1 renal, 1.01 µM; in the assay on EKVX NSCLC it was 7.23 µM; in the assay with HCT-15 colon it was 0.829 µM; in the assay with IGROV1 ovarian, 0.846 µM; with KM12 colon it was 2.42 µM. The GI50 in the assay with NCI-H460 lung is 2.48 µM; with RXF 393 renal, 1.11 µM; in the assay with SF-268 CNS, 0.672 µM; in the assay with SF-539 CNS it was 1.55 µM. Also, the TGI in the assay with 786-0 renal was 2.37 µM; in the assay on CAKI-1 renal, 3.29 µM; with EKVX NSCLC, 15.1 µM; in the assay on HCT-15 colon, 1.59 µM; with IGROV1 ovarian, 7.22 µM; in the assay on KM12 colon, 8.67 µM. In addition, the TGI was determined as 10.6 µM in the assay with NCI-H460 lung, 4.36 µM in the assay on RXF 393 renal, 1.91 µM with SF-268 CNS and 6.11 µM in the assay on SF-539 CNS.
